pIC50: −log10 of the molar value.
What was measured:
[1] = molecular target: recombinant human caseinolytic peptidase hClpP (Homo sapiens, UniProt Q16740); assay: hClpP peptide hydrolysis assay (Ac-WLA-AMC); settings: Protocol 2, purified hClpP, Ac-WLA-AMC
Description: Briefly, the activity of recombinant hClpP proteolytic subunit (1 μg/mL) was measured in the assay buffer composed of 50 mM Tris, 10 mM MgCl2, 100 mM KCl, 1 mM DTT, 4 mM ATP, 0.02% Triton X-100 and 5% Glycerol, pH 8.0 (HCl) using 10 µM of fluorogenic Ac-WLA-AMC substrate as described in references above. […] Using the first protocol (Protocol 1), the reaction was initiated by immediately mixing enzyme and substrate in the presence of indicated doses of compounds. Applying a second protocol (Protocol 2), the enzyme and compounds were mixed and incubated in assay buffer for 60 min before initiating the reaction by adding Ac-WLA-ACM substrate.
Enzymatic activity of hClpP was measured in assay buffer (as described in Experimental Procedure/Materials and Methods) and the level of fluorescence of liberated coumarin monitored continuously.

hClpP = molecular target: T1, hClpP (Homo sapiens, UniProt Q16740); assay: hClpP binding to immobilized compound Sepharose beads, Western blot
T1 construct: endogenous in cells; host or cells: HeLa cell lysate

[2] = test system: HCT116 (human colon cancer); assay: Cancer cell viability, CCK-8, HCT116; type: cell-based; settings: Homo sapiens, HCT-116, 48 h, HCT116, 48 hours, CCK-8; read-out: EC50 (uM, HCT116)
Description: (§1) Cancer cell lines. […] The plate is incubated for 48 hours.
(§2) CCK-8 solution is added directly to the cells.

[3] = test system: SUM159 triple negative breast cancer cells; assay: Immunoblot of mitochondrial proteins, SUM159 (FIG. 12); type: cell-based; settings: SUM159, 100 nM, 3-48 hrs
Description: (§3) Immunoblot of SUM159 or MDA-MB-231 cells following 0.1% DMSO (48 hrs) or 100 nM Ex. 65 for indicated timepoints (3-48 hrs) for indicated proteins.

[4] = test system: AN3CA (human uterine cancer); assay: Cell viability CCK8, 72 hours, AN3CA; type: cell-based; settings: AN3-CA, 72 hours of drug incubation
Description: (§4) For cancer cell lines, AN3CA (human uterine/endometrial cancer, Van Nyen, T. et al Int. J. Mol. Sci. 2018, 19, 2348 and referenced cited therein) cell line and Capan-2 (human pancreatic adenocarcinoma) cell line additional details for testing are as follows. Using 96 well cell culture plate (Corning Costar, Cat #3599), after addition of the test compound (Example 65, or other) the plate is incubated at 37° C., 5% CO2 for 72 hours. Cell viability was determined using CCK8 assay by adding […] of CCK8 into the assay well, incubate the plate for 2 hours and record […] using a SpectraMax i3X reader. Other 72 hour incubation studies can also using these details in addition to other experimental details described herein.
(§5) Example 65 was examined in AN3CA (human uterine cancer) and Capan-2 (human pancreatic adenocarcinoma) cancer cell lines.

[5] = test system: Capan-2 (human pancreatic adenocarcinoma); assay: Cell viability CCK8, 72 hours, Capan-2; type: cell-based; settings: 72 hours of drug incubation
Description: as §4, §5

[6] = test system: MDA-MB-231 triple negative breast cancer cells; assay: Immunoblot of mitochondrial proteins, MDA-MB-231 (FIG. 12); type: cell-based; settings: MDA-MB-231, 100 nM, 3-48 hrs
Description: as §3

[7] = test system: MDA-MB-231 (MDA 231, human breast adenocarcinoma); assay: Cancer cell viability, CCK-8, MDA-MB-231; type: cell-based; settings: Homo sapiens, MDA-MB-231; MDA 231, 48 hours, CCK-8; read-out: EC50 (uM, MDA 231)
Description: as §1, §2

ALAS1 (SEQ ID NO. 2) = assay: ALAS1 Western blotting time courses (FIG. 15-17); settings: Ex. 85 at 50 nM; 30 minute, sustained over 24 hrs
ClpX and TUFM = ClpX and TUFM Western blots in SUM159 cells (FIG. 5); settings: concentration response and time course
SUM159, ClpP CRISPR KO = assay: Growth of SUM159 versus SUM159 ClpP CRISPR KO cells (FIG. 6); settings: SUM159 ClpP CRISPR KO compared to SUM159

recombinant human caseinolytic peptidase hClpP, sequence (Q16740 57-277): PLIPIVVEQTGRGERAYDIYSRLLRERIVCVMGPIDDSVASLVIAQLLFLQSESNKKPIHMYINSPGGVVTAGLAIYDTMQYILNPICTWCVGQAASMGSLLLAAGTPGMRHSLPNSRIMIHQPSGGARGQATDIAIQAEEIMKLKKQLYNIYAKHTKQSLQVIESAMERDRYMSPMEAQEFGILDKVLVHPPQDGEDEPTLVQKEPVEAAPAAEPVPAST
T1 sequence (Q16740 57-277): as above

Structure (SMILES): N#Cc1cccc(CN2CCc3c(c(=O)n(Cc4ccc(C(F)(F)F)cc4)c(=O)n3CCCN)C2)c1 [Ex. 57, 3-((1-(3-aminopropyl)-2,4-dioxo-3-(4-(trifluoromethyl)benzyl)-1,2,3,4,7,8-hexahydropyrido[4,3-d]pyrimidin-6 (5H)-yl)methyl)benzonitrile]
- Dose-dependency of hClpP activation [1]: dose-dependent increases in hClpP activity
- hClpP binding to compound coupled to Sepharose beads (hClpP): directly binds
- EC50 [2]: 0.057 µM

Structure (SMILES): N#Cc1cccc(CN2CCc3ncn(Cc4ccc(Cl)cc4)c(=O)c3C2)c1 [Example 65]
- Mitochondrial protein degradation [3]: induces degradation of mitochondrial proteins in a time dependent manner
- pIC50 [4]: 9.00
- pIC50 [5]: > 7.30
- Dose-dependency of hClpP activation [1]: Dose-dependent increases in hClpP activity
- EC50 [2]: 0.021 µM
- Mitochondrial protein degradation [6]: induces degradation of mitochondrial proteins in a time dependent manner

Structure (SMILES): N#Cc1cccc(CN2CCc3cnn(Cc4ccc(Cl)cc4)c(=O)c3C2)c1 [Example 85, 3-((3-(4-chlorobenzyl)-4-oxo-3,5,7,8-tetrahydropyrido[3,4-d]pyridazin-6 (4H)-yl)methyl)benzonitrile]
- EC50 [7]: 0.003 µM
- ALAS1 protein level (FIG. 16) (ALAS1 (SEQ ID NO. 2)): rapidly degraded
- EC50 [2]: 0.008 µM

Structure (SMILES): Cn1c2c(c(=O)n(Cc3ccc(Cl)cc3)c1=O)CN(Cc1cccc(C#N)c1)CC2 [TR57]
- ClpX and TUFM protein level (ClpX and TUFM): reduction of the protein ClpX and TUFM
- Effect on growth of ClpP CRISPR knockout cells (SUM159, ClpP CRISPR KO): resistant

From patent US12692267B2 (Madera Therapeutics, LLC, priority 2019, dated 2026)
